SMILES strings stand for the structures.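 Exposure lasted 48 hours, with cells grown in 96-well plates and compounds tested at five concentrations. Definition used: TGI = concentration required for complete inhibition of growth.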 Some results are limits rather than exact numbers.

The values that follow come from PubChem BioAssay (NCI).

What all share (assay): NCI-60 cell line screen, 48 h
The test system of experiment [1] is A549 NSCLC.
Experiment [2] concerns CAKI-1 renal.
The test system of experiment [3] is CCRF-CEM leukemia.
Experiment [4] has as its system EKVX NSCLC.
For experiment [5], the system named is HCT-15 colon.
For experiment [6], the system named is HL-60(TB) leukemia.
Experiment [7] relates to HOP-62 NSCLC.
The subject of experiment [8] is HS 578T breast.
The test system of experiment [9] is M14 melanoma.
The subject of experiment [10] is MDA-MB-435.
Experiment [11] deals with MOLT-4 leukemia.
Experiment [12] relates to NCI-H522 lung.
Experiment [13] deals with OVCAR-3 ovarian.
The subject of experiment [14] is PC-3 prostate.
In experiment [15] the test system is SK-MEL-2 melanoma.
Experiment [16] relates to SN12C renal.
Experiment [17] relates to SNB-75 CNS.
The test system of experiment [18] is UACC-62 melanoma.
In experiment [19] the test system is RXF 393 renal.
Experiment [20] concerns SK-MEL-5 melanoma.

Take `O=C1/C(=C/c2cccc(Br)c2)Cc2ccccc21`: the TGI in experiment [1], in experiment [2], in [3], in experiment [4], in experiment [5] and in experiment [6] was greater than 100 µM each time. In addition, the TGI in experiment [7], in experiment [8], in experiment [9], in experiment [10], in experiment [11] and in experiment [12] was greater than 100 µM each time. Besides, the TGI in [13], in experiment [14], in [15], in experiment [16], in experiment [17] and in experiment [18] was greater than 100 µM in each case.

Turning to `Cc1cc2c(cc1C)C(=O)C1(C2)Cc2c(C)ccc(C)c2C1=O` (stereo not given), the TGI in experiment [1], in experiment [2], in experiment [3], in experiment [4], in experiment [5] and in experiment [6] was greater than 100 µM each time. The TGI in experiment [8], in experiment [9], in experiment [10], in [11], in experiment [12] and in experiment [13] was greater than 100 µM throughout. In addition, the TGI in experiment [14], in [19], in experiment [15], in experiment [20], in experiment [16] and in [17] was greater than 100 µM in each case. Also, in experiment [18], the TGI is greater than 100 µM.

Regarding `COC1=CC2C(c3cc4ccccc4n3S(=O)(=O)c3ccccc3)CC1CN2C(=O)OCc1ccccc1` (stereo not given), the TGI in experiment [1] is greater than 100 µM; in experiment [2] it was greater than 100 µM; in [3] it was greater than 100 µM; in experiment [4], 82.2 µM; in experiment [5], greater than 100 µM; in [6] it was 41.9 µM. Moreover, the TGI in experiment [7] is greater than 100 µM; in [8], greater than 100 µM; in experiment [9], 51.2 µM; in [10] it was 75.9 µM; in [12] it was 52.9 µM; in experiment [13] it was greater than 100 µM. Besides, the TGI in experiment [14] was greater than 100 µM; in experiment [19], 69.2 µM; in experiment [15], 54.2 µM; in [20] it was 58.9 µM; in [16], greater than 100 µM; in experiment [17], 33.7 µM. Moreover, in experiment [18], the TGI was greater than 100 µM.

As for `CC(CO)CCNc1ncnc2c1ncn2CCC(=O)OC(C)(C)C` (stereo not given), the TGI in [1], in experiment [2], in experiment [3], in [4], in [6] and in experiment [7] was greater than 100 µM throughout. The TGI in experiment [8], in experiment [9], in [10], in experiment [11], in experiment [12] and in [13] was greater than 100 µM throughout. The TGI in [14], in experiment [19], in experiment [20], in experiment [16], in [17] and in experiment [18] was greater than 100 µM throughout.

Take `CC1C[C@]2(C)C(=NCCN)Nc3ccccc3[C@@H]2N(C)c2ccccc21` (stereo not given in full): the TGI in [1] came to 31.6 µM; in [2], 31.3 µM; in [3], 35 µM; in experiment [4], 33 µM; in [5] it was 34.5 µM; in [6], 36 µM. The TGI in experiment [7] was 30.6 µM; in [8], 38.2 µM; in [9] it was 3.56 µM; in [10], 22.7 µM; in experiment [11], greater than 100 µM; in experiment [13], 23.7 µM. Further, the TGI is 26.6 µM in [14]; 22.1 µM in experiment [19]; 34.3 µM in experiment [15]; 26.8 µM in experiment [20]; 28.4 µM in experiment [16]; 13.2 µM in experiment [17]. This compound also displayed a TGI in experiment [18] of 28.1 µM.

Regarding `Cc1nn(C(=O)Cc2ccccc2)c2c1C(c1ccc(Cl)cc1)SC(N)=N2` (stereo not given), the TGI in experiment [1], in [2], in experiment [3], in experiment [4], in experiment [5] and in experiment [6] was greater than 100 µM each time. Further, the TGI in experiment [7], in [8], in [9], in [10], in [11] and in experiment [12] was greater than 100 µM in each case. Also, the TGI in experiment [14] was greater than 100 µM; in experiment [20] it was greater than 100 µM; in [16], greater than 100 µM; in experiment [17], 96.9 µM; in experiment [18], greater than 100 µM.

For the compound `O=C1c2cccc3cccc(c23)C2NCCCN12` (stereo not given), the TGI in [1], in [2], in experiment [3], in [4], in experiment [5] and in experiment [6] was greater than 100 µM each time. For the same compound, the TGI in experiment [7] was greater than 100 µM; in experiment [8], greater than 100 µM; in experiment [9], greater than 100 µM; in [10], greater than 100 µM; in experiment [11] it was greater than 100 µM; in [12], 80.4 µM. For the same compound, the TGI in experiment [13] is greater than 100 µM; in experiment [14], greater than 100 µM; in experiment [19], greater than 100 µM; in experiment [20], greater than 100 µM; in experiment [16] it was greater than 100 µM; in experiment [17], 89.5 µM. In addition, the TGI in experiment [18] is greater than 100 µM.

In the case of `O=C1NC(=O)C(c2c[nH]c3ccccc23)=C1c1cn(C(c2ccccc2)(c2ccccc2)c2ccccc2)cn1`, the TGI was 12.8 µM in experiment [1]; greater than 100 µM in [2]; 17.4 µM in experiment [3]; 19.4 µM in experiment [4]; 14.9 µM in experiment [5]; 20.4 µM in experiment [6]. Besides, the TGI in [8] was 68.2 µM; in experiment [9] it was 16.3 µM; in [10] it was 12.9 µM; in [11], 7.39 µM; in experiment [12], 22.9 µM; in experiment [13] it was 19.6 µM. Moreover, the TGI is 7.24 µM in experiment [14]; 36.1 µM in experiment [19]; 25.6 µM in [15]; 20.8 µM in experiment [20]; 20.3 µM in experiment [16]; 22.1 µM in experiment [17]. The TGI in experiment [18] was determined as 30.1 µM.

For the compound `CN(C)CCNC(=O)c1ccc2nc3c(nc2c1)C(=O)c1ccccc1-3`, the TGI in experiment [1] was greater than 100 µM; in experiment [2], greater than 100 µM; in [3] it was 39.3 µM; in experiment [4], greater than 100 µM; in experiment [5], greater than 100 µM; in experiment [6], 38.2 µM. In addition, the TGI in experiment [7] was greater than 100 µM; in experiment [8], greater than 100 µM; in experiment [9] it was greater than 100 µM; in [10] it was 48.2 µM; in [11], 52.6 µM; in experiment [12] it was greater than 100 µM. Further, the TGI is greater than 100 µM in [13]; greater than 100 µM in [14]; greater than 100 µM in experiment [19]; 32.1 µM in experiment [20]; greater than 100 µM in experiment [16]; greater than 100 µM in experiment [17]. Besides, the TGI in experiment [18] was greater than 100 µM.

In the case of `S=C1SSC2N=CC=CC12` (stereo not given), the TGI in experiment [1] was greater than 100 µM; in experiment [2] it was 34.3 µM; in experiment [3], 71.1 µM; in experiment [4], greater than 100 µM; in experiment [5], greater than 100 µM; in experiment [6], greater than 100 µM. Further, the TGI was greater than 100 µM in experiment [8]; greater than 100 µM in experiment [9]; 31.8 µM in experiment [10]; greater than 100 µM in experiment [11]; greater than 100 µM in experiment [12]; greater than 100 µM in [13]. Also, the TGI in experiment [14], in experiment [19], in [15], in experiment [20], in experiment [16] and in [17] was greater than 100 µM each time. The compound also had a TGI in experiment [18] greater than 100 µM.

On to `N#Cc1[nH]c(=S)[nH]c1N`, for which the TGI in [1], in experiment [2], in [3], in experiment [4], in [5] and in [6] was greater than 100 µM in each case. Also, the TGI in [7], in experiment [8], in experiment [10], in experiment [12], in experiment [13] and in [14] was greater than 100 µM throughout. Also, the TGI in experiment [19], in experiment [15], in [20], in [16], in [17] and in experiment [18] was greater than 100 µM in each case.

For `[N-]=[N+]=NC1C(O)C(CO)OC1n1ccc(=O)[nH]c1=O` (stereo not given), the TGI in experiment [1], in [2], in experiment [3], in [4], in experiment [5] and in [6] was greater than 875 µM throughout. Further, the TGI in experiment [7], in experiment [8], in [9], in experiment [10], in experiment [11] and in experiment [12] was greater than 875 µM throughout. For the same compound, the TGI in [13], in [14], in [15], in [20], in [16] and in experiment [17] was greater than 875 µM throughout. The compound further returned a TGI in experiment [18] greater than 875 µM.

On to `COc1ccc2c(c1)nc1n2C(c2c(Cl)cccc2Cl)SC1` (stereo not given), for which the TGI in [1] is greater than 100 µM; in [2] it was greater than 100 µM; in experiment [3], greater than 100 µM; in [4], greater than 100 µM; in experiment [5], greater than 100 µM; in [6], greater than 22.7 µM. In addition, the TGI is greater than 71 µM in experiment [7]; 49.4 µM in [8]; greater than 43.7 µM in experiment [9]; greater than 23.6 µM in [10]; greater than 100 µM in experiment [11]; greater than 93 µM in [13]. Also, the TGI is greater than 82.3 µM in experiment [14]; greater than 70.3 µM in [19]; greater than 74 µM in [15]; greater than 100 µM in experiment [20]; greater than 100 µM in [16]; greater than 75.1 µM in experiment [17]. The TGI in experiment [18] is greater than 100 µM.

For the compound `O=C(c1cccs1)N(C(=O)N1CCN(c2ccccc2)CC1)S(=O)(=O)c1ccccc1`, the TGI was 98.4 µM in experiment [1]; 59.9 µM in [2]; greater than 100 µM in experiment [3]; 42.3 µM in experiment [4]; 75.4 µM in experiment [5]; 45 µM in experiment [6]. Further, the TGI in experiment [7] was greater than 100 µM; in experiment [8] it was 65.9 µM; in [9], 36 µM; in [10], 70.6 µM; in experiment [11], 49.8 µM; in experiment [12] it was 34.2 µM. The TGI in experiment [13] is greater than 100 µM; in [14], 94.6 µM; in experiment [15], 36.3 µM; in experiment [20] it was 30.7 µM; in experiment [16], 35.1 µM; in experiment [17], 61.2 µM. In addition, in experiment [18], the TGI amounted to 33.8 µM.

Regarding `CN1C(=O)c2ccccc2OC12C=Cc1ccc(O)cc1O2` (stereo not given), the TGI is greater than 100 µM in [1]; 58 µM in experiment [2]; 72.8 µM in experiment [3]; 64.5 µM in experiment [4]; greater than 100 µM in [5]; 58.5 µM in experiment [6]. The TGI in [7] is 73.7 µM; in experiment [8] it was 84.3 µM; in experiment [9] it was 45.3 µM; in experiment [10], 85.3 µM; in [11], 58.7 µM; in experiment [12], greater than 100 µM. The TGI is 63.6 µM in experiment [13]; 59.2 µM in experiment [14]; 56.1 µM in [15]; 37.6 µM in experiment [20]; greater than 100 µM in experiment [16]; 80.1 µM in [17]. The TGI in experiment [18] worked out at 91.6 µM.
